Experimental data reported in PubChem BioAssay AID2060905 (Molecular Pharmacology Branch, DTP, NCI, 2025).

Test system: 282377-053-R-J1-PDC complex spheroid viability
Experiment: Anticancer human tumor 282377-053-R-J1-PDC patient-derived colon adenocarcinoma cell line growth inhibition [RAS]
Conditions: for IC50: curve of first compound; for viability, T/C: stronger effect = lower value; active means viability on the fitted dose curve at most 10% of control; inactive means the rest
How it was run: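 Agents were tested in combination matrices in half-log decrements from a top concentration at or near clinical Cmax (10 microM if undetermined). Targets were multi-cell spheroids of tumour lines plus HUVEC and MSC stromal cells.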
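Further: spheroids exposed to agents for seven days before readout.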
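Wherever viability, T/C is given: luminescence viability as percent of DMSO vehicle control wells.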

CC(=O)OC12COC1CC(O)C1(C)C(=O)C(O)C3=C(C)C(OC(=O)C(O)C(NC(=O)OC(C)(C)C)c4ccccc4)CC(O)(C(OC(=O)c4ccccc4)C21)C3(C)C (configuration not stated) + C#Cc1c(F)ccc2cc(O)cc(-c3ncc4c(N5CC6CCC(C5)N6)nc(OCC56CCCN5CC(F)C6)nc4c3F)c12
inactive: viability, T/C (second compound 0.0316 µM, first compound 0.0316 µM) 21.9% | viability, T/C (second compound 0.0316 µM, first compound 0.1 µM) 20.5% | viability, T/C (second compound 0.0316 µM, first compound 0.316 µM) 23.9% | viability, T/C (second compound 0.0316 µM, first compound 1 µM) 29.7% | viability, T/C (second compound 0.0316 µM, first compound 3.16 µM) 43.1% | viability, T/C (second compound 0.0316 µM, first compound 10 µM) 52.1% | viability, T/C (second compound 0.1 µM, first compound 0.0316 µM) 25.4% | viability, T/C (second compound 0.1 µM, first compound 0.1 µM) 23.1% | viability, T/C (second compound 0.1 µM, first compound 0.316 µM) 23.4% | viability, T/C (second compound 0.1 µM, first compound 1 µM) 28.7% | viability, T/C (second compound 0.1 µM, first compound 3.16 µM) 49.8% | viability, T/C (second compound 0.1 µM, first compound 10 µM) 69.4% | viability, T/C (second compound 0.316 µM, first compound 0.0316 µM) 28.6% | viability, T/C (second compound 0.316 µM, first compound 0.1 µM) 24.7% | viability, T/C (second compound 0.316 µM, first compound 0.316 µM) 26.7% | viability, T/C (second compound 0.316 µM, first compound 1 µM) 30.2% | viability, T/C (second compound 0.316 µM, first compound 3.16 µM) 47.4% | viability, T/C (second compound 0.316 µM, first compound 10 µM) 67.2% | viability, T/C (second compound 1 µM, first compound 0.0316 µM) 32.6% | viability, T/C (second compound 1 µM, first compound 0.1 µM) 25% | viability, T/C (second compound 1 µM, first compound 0.316 µM) 26.6% | viability, T/C (second compound 1 µM, first compound 1 µM) 33% | viability, T/C (second compound 1 µM, first compound 3.16 µM) 60.6% | viability, T/C (second compound 1 µM, first compound 10 µM) 61.5% | viability, T/C (second compound 3.16 µM, first compound 0.0316 µM) 27.9% | viability, T/C (second compound 3.16 µM, first compound 0.1 µM) 29.2% | viability, T/C (second compound 3.16 µM, first compound 0.316 µM) 31.4% | viability, T/C (second compound 3.16 µM, first compound 1 µM) 39.6% | viability, T/C (second compound 3.16 µM, first compound 3.16 µM) 58.5% | viability, T/C (second compound 3.16 µM, first compound 10 µM) 66% | viability, T/C (second compound 10 µM, first compound 0.0316 µM) 32.1% | viability, T/C (second compound 10 µM, first compound 0.1 µM) 31.8% | viability, T/C (second compound 10 µM, first compound 0.316 µM) 41.6% | viability, T/C (second compound 10 µM, first compound 1 µM) 49.3% | viability, T/C (second compound 10 µM, first compound 3.16 µM) 77.7% | viability, T/C (second compound 10 µM, first compound 10 µM) 78.7%
< 31.6 nM: IC50 (second compound 0.0316 µM) | IC50 (second compound 0.1 µM) | IC50 (second compound 0.316 µM) | IC50 (second compound 1 µM) | IC50 (second compound 3.16 µM) | IC50 (second compound 10 µM)
